Laboratory results published in patent publication US12551479B2, “Acyl-protein thioesterase inhibitor for the treatment and/or prevention of Huntington's disease” (UNIVERSITÉ GRENOBLE ALPES, priority 2019, dated 2026).

How the values were obtained:
StHdh^Q111/Q111 cells = test: RUSH system: GPI-SBP-mCherry trafficking from endoplasmic reticulum to Golgi and plasma membrane; format: cell-based, mouse
Procedure: The RUSH plasmid (Boncompain et al., 2012) is a bicistronic plasmid (SEQ ID NO: 2) allowing the expression of two parts of the system: the reticulum-specific anchor (KDEL-streptavidin), and the reporter part (GPI-SBP-mCh). The addition of biotin in the extracellular medium (40 μM) induces the unhooking of the reporter part of the anchor, thus allowing to follow the intracellular trafficking in a synchronized way within a cell population from the endoplasmic reticulum.
For striatal StHdh cells, acute treatment was performed at 10 μM for 1 hour before and during the acquisition time. For neurons within the microchambers, treatments were started at DIV2 until DIV12 every day at 1 μM in each compartment of the microfluidic device.
The inventors used the Retention Using Selective Hooks (RUSH) system to study intracellular dynamics from the ER to the plasma membrane in Huntington's disease condition (FIG. 1A). RUSH allows tracking the synchronous release of a reporter molecule from specific intracellular compartments. In the present experiment, the inventors followed the release of glycosylphosphatidylinositol (GPI)-anchored fluorescence protein mCherry, and fused to streptavidin-binding peptide (SBP) that was retained into the ER compartment by the interaction with a “hook” protein composed of the KDEL motif fused to streptavidin. In the absence of biotin, the GPI-SBP-mCherry localizes at the ER (FIG. 1A). Addition of biotin to the cells expressing GPI-SBP-mCherry and KDEL-streptavidin causes a synchronous release of the GPI-SBP-mCherry reporter from the hook which then migrates to the Golgi apparatus and later to the plasma membrane.
To study these dynamics in the context of Huntington's disease, the inventors transfected the GPI-SBP-mCherry-KDEL-streptavidin construct as shown in SEQ ID NO:2 into immortalized striatal cells from Hdh^Q111/Q111 and Hdh^Q7/Q7 mice, referred to as StHdh^Q111/Q111 and StHdh^Q7/Q7 cells respectively. They then monitored GPI-SBP-mCherry trafficking by real-time imaging for 90 minutes. To assess intracellular trafficking dynamics, they quantified the kinetics of appearance and disappearance of mCherry fluorescence in the Golgi apparatus over time (FIGS. 1B and C). Shortly after biotin addition, GPI leaves the ER and moves to the Golgi apparatus. The inventors quantified fluorescence at the Golgi and observed that in StHdh^Q7/Q7 cells, the peak fluorescence was at 16.6 minutes, whereas it was delayed to 23.6 minutes in StHdh^Q111/Q111 cells (FIG. 1B). Their observations indicate a reduced trafficking of GPI from the ER to the Golgi apparatus as well as prolonged retention of GPI in the Golgi as evidenced by a longer period of GPI fluorescence in the Golgi apparatus.

APT2 = APT2 (Homo sapiens, UniProt O95372); details: read-out: IC50APT2; cited from earlier work
Sequence of APT2 (O95372 whole entry): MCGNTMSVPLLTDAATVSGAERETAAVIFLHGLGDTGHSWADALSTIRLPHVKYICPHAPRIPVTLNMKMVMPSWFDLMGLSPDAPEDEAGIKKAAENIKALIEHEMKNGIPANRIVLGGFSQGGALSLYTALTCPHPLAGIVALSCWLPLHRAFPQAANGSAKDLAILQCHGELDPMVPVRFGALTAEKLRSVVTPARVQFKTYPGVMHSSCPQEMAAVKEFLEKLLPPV

APT1 = APT1 (Homo sapiens, UniProt O75608); details: read-out: IC50APT1; cited from earlier work
Sequence of APT1 (O75608 whole entry): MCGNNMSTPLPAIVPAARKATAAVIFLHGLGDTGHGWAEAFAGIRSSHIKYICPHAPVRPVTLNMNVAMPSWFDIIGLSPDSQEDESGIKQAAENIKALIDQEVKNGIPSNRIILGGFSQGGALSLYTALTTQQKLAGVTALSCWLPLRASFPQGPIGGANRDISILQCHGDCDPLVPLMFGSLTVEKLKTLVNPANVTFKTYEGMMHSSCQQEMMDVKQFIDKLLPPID

melanoma cells = details: studies of Vujic et al., 2015; cited from earlier work
[1] = StHdh^Q111/Q111 cells, inhibitor 10 μM 1 hour or siRNA gene silencing

CCCCCCCCCC[C@@H]1C(=O)O[C@H]1CCc1ccc(OC)c(OC)c1 [Palmostatin B]
time after biotin addition for the appearance of the fluorescence peak in the Golgi (StHdh^Q111/Q111 cells; StHdh^Q111/Q111 cells treated 1 hour with 10 μM, without treatment 23.2-23.3 min, StHdh^Q7/Q7 16.6 min): 18 min | time for fluorescence to leave the Golgi apparatus (retention time in the Golgi) (StHdh^Q111/Q111 cells; StHdh^Q111/Q111 cells treated 1 hour with 10 μM, without treatment 24-25.4 min, wild-type cells 15.1 min): 21.3 min | IC50 (APT2): 37.7 nM | IC50 (APT1): 5.4 nM

COc1ccc(N2CCN(C(=O)c3cc4c(s3)-c3ccccc3S(=O)(=O)C4)CC2)cc1 [ML-349]
effect on kinetics from the endoplasmic reticulum to the Golgi apparatus (StHdh^Q111/Q111 cells; [1]): no effect | effect on retention in the Golgi (StHdh^Q111/Q111 cells; [1]): no effect | effect on melanoma cells (melanoma cells): no biologically significant effect
